These are literature values, as cited in patent US20120251478A1, “Method for treatment of a glomerular disease comprising administration of anion exchange resin” (priority 2006, published 2012).

This series has as its system apparent albuminuria. Conditions: reports, nonpatent reference 2.

As to `COc1ccc(Cl)cc1C(=O)NCCc1ccc(S(=O)(=O)NC(=O)NC2CCCCC2)cc1` [glibenclamide], the apparent albuminuria result is “not ameliorated”.
